Measured values: patent publication US20240092744A1, “TRICYCLIC COMPOUND, AND PREPARATION METHOD THEREFOR AND MEDICAL USE THEREOF” (THE NATIONAL INSTITUTES OF PHARMACEUTICAL R&D CO., LTD., priority 2020, published 2024)

Columns and labels:
[1] = tested on: allergic conjunctivitis animal model; test: Therapeutic effect in C48/80-induced allergic conjunctivitis animal model; assay type: in vivo, Female Wistar rats; conditions: Wistar rats, 10 μL per eye, examined 20 minutes after administration
Source text: C48/80 is a polymer formed by the condensation of N-methyl-p-methoxyphenethylamine with formaldehyde, which acts directly on G protein and induces mast cell degranulation. After degranulation, the mast cell releases active substances such as histamine and kinin, which can cause acute type I allergic reactions such as telangiectasia and enhanced permeability. It can cause allergic conjunctivitis if applied topically to the ocular surface.
Female Wistar rats were used as the research subjects. Wistar rats (Vital River) were randomly divided into groups (5 animals per group, a total of 10 eyes). The groups are as follows: normal control group, model control group, positive drug group, and example administration group. The inflammation model was established in these groups except for the normal control group. Emedastine Difumarate Eye Drops (Emadine®, Alcon, H20181192) was used as the positive drug. Model establishment, administration and evaluation processes were as follows. […]
After 10 minutes of stimulation, different drug treatments were carried out according to the group settings. […] The clinical score was evaluated individually on the eyes of each animal according to the McDonald-Shadduck scoring system (GB/T 28538-2012). […]

[2] = Determination of aldehyde capture rate (nonenal as model aldehyde, HPLC quantification); conditions: for Aldehyde consumption (100%): 0.05 mM compound, 0.025 mM nonenal, room temperature; for Capture rate (slope of the capture curve per unit time): higher absolute value of the slope = higher capture rate
Experimental: In the aldehyde capture test disclosed in the present invention, the stable lipid metabolite, nonenal, was used as the model aldehyde to react with the compound of the Example. The specific protocol was as follows.
0.05 mM of the compounds of the Examples of the present invention were precisely weighed respectively and dissolved in 1.2 mL of a mixed solution (v/v=1:1) of triolein (Aladdin, G105172-5g) and linoleic acid (Aladdin, L100442-25g), respectively. 2.5 mL of PBS (Solarbio, P1020) solution containing 20% Captisol® (Aladdin, Cl25030-25 g) was added, and the solution was stirred at room temperature overnight. After the example compound was completely dissolved, 0.025 mM nonenal (Sigma, 255653-5G) was added, and the solution was stirred vigorously at room temperature. […] The solution was mixed vigorously by vortex for 2 minutes, and centrifuged at a low speed of 1000 r/min for 3 minutes. The supernatant was transferred to an injection vial. The nonenal in the reaction mixture was analyzed quantitatively by high performance liquid chromatography. The adduct resulted from the example compound of the present invention and nonenal was analyzed qualitatively by high performance liquid chromatography-mass spectrometry.
Liquid Chromatograph: Waters I Class;
Column: ACQUITY UPLC HSS T3 1.8 μm;
Column temperature: 40° C.;
Liquid chromatography condition: mobile phase A: acetonitrile containing 0.1% formic acid; B: water containing 0.1% formic acid;
Injection volume: 0.5 mL.
Gradient of the mobile phases: […]
In the developed detection method, the retention time of the model aldehyde nonenal was 2.42 minutes. • Mass spectrometry conditions: • Mass spectrometer: Waters TQ-S micro • Ion source: ESI^+ • Capillary voltage: 0.5 kV • Cone voltage: 10V • Source temperature: 150° C. • Degassing temperature: 500° C., degassing flow: 1000 L/Hr • SIM mode • m/z: 225.24 [(mExample 1−OH)+H]^+, 365.42 [madduct 1+H]^+
The time-varying diagram of the capture reaction of the compounds of the examples of the present invention to nonenal is shown in FIG. 1.

[3] = tested on: noninfectious uveitis animal model; test: Therapeutic effect in lipopolysaccharide-induced noninfectious uveitis animal model (eye drops); assay type: in vivo, Female lewis rats
Experimental: Female lewis rats were used as the research subjects. Lewis rats (Vital River) were randomly divided into groups (4 animals per group, a total of 8 eyes). The groups are as follows: normal control group, model control group, and example administration group. The inflammation model was established in these groups except for the normal control group.
Formulation of eye drops: • (1) Formulation of drug vehicle stock solution: […] of Na2HPO4.12H2O (Xilong Scientific, 9009012-01-09), 19 mg of NaH2PO4.2H2O (Xilong Scientific, 9009013-01-09) and 9500 mg of β-cyclodextrin (Sigma, E1930253) were precisely weighed and dissolved in 30 mL sterile water for injection (Beijing CR Double-Crane), followed by addition of […] of PEG-400 (Solarbio, 222U011). The solution was mixed well, and made up to 50 mL with water for injection. • (2) Formulation of drug solution: 10 mg of the compound of Example 2 of the present invention was weighed and dissolved in 1 mL of the vehicle stock solution, and the resulting solution was made up to 2 mL with water for injection. The content of each substance is as follows: Na2HPO4.12H2O 0.83%, NaH2PO4.2H2O 0.017%, β-cyclodextrin 9.5%, PEG-400 5.0%, active compound 0.5%. • (3) The pH value of the formulated drug solution was determined by pH test paper. If the pH value was not within 7.3±0.05, then it was adjusted to this range with 1 N HCl or 1 N NaOH. […]
The animal model was a noninfectious uveitis animal model established by intraperitoneal injection of lipopolysaccharide (derived from Escherichia coli, 055:B5, Sigma, L2880-100MG, injection dose: 2 mg/kg). […] The ocular inflammation of the animals in each group was examined with a slit lamp microscope (Jiangxi Jiangfeng, LYL-S), and evaluated according to the McDonald-Shadduck scoring system (GB/T 28538-2012).
The animals were sacrificed, and the bilateral eyeballs were enucleated. […] Quantitative analysis of total protein in aqueous humor was performed on the supernatant by a BCA protein quantification kit (Beyotime, P0010). […]

## CC(C)(O)c1cc2c(cc1N)Oc1ccccc1O2 [Example 4, 2-(3-Aminodibenzo[b,e][1,4]dioxin-2-yl)propan-2-ol]
[1]
  Therapeutic effect on allergic conjunctivitis (McDonald-Shadduck score, FIG. 2, in words): good therapeutic effect
[2]; 135 minutes
  Aldehyde consumption (100%): 38.33%
  Capture rate (slope of the capture curve per unit time): −0.27
[2]; 180 minutes
  Aldehyde consumption (100%): 48.10%
  Capture rate (slope of the capture curve per unit time): −0.23

## Cn1c2ccccc2c2cc(N)c(C(C)(C)O)nc21 [Example 2, 2-(3-Amino-9-methyl-9H-pyrido[2,3-b]indol-2-yl)propan-2-ol]
[3]; 0.5% eye drops, 20 μL/eye, 24 hours after LPS modeling, mean ± standard deviation, model control 17.0 ± 6.4, normal control 4.5 ± 0.8
  Ocular score (McDonald-Shadduck ocular inflammation score): 8.6 ± 1.1
[3]; 0.5% eye drops, 20 μL/eye, 24 hours after LPS modeling, mean ± standard deviation, model control 1062.7 ± 423.6, normal control 225.5 ± 65.4
  Protein concentration in aqueous humor: 376.4 ± 164.0 µg/mL
[3]; LPS-induced uveitis, Lewis rats, eye drops
  Therapeutic effect in ocular inflammation animal model (in words): showing a therapeutic effect
[2]; 135 minutes
  Aldehyde consumption (100%): 43.48%
  Capture rate (slope of the capture curve per unit time): −0.34
[2]; 180 minutes
  Aldehyde consumption (100%): 57.75%
  Capture rate (slope of the capture curve per unit time): −0.31
